Laboratory results as given in ChEMBL document CHEMBL5370672, “Discovery of Orally Bioavailable Phthalazinone Analogues as an ENPP1 Inhibitor for STING-Mediated Cancer Immunotherapy” (J Med Chem, 2023).
Calls of active or inactive are those of the source. The rule behind the calls is not given here.

Experiments:
[1] = Tmax in BALB/c mouse at 5 mg/kg, iv measured after 24 hrs by LC-MS/MS analysis; type: ADME, organism-based; conditions: in vivo
[2] = MRT (0 to infinity) in BALB/c mouse at 5 mg/kg, iv measured after 24 hrs by LC-MS/MS analysis; type: ADME, organism-based; conditions: in vivo
HCT-116 = assay: Cytotoxicity against human HCT-116 cells assessed as reduction in cell viability upto 200 uM incubated for 48 hrs in the presence of cGAMP by celltiter 96 aqueous one solution cell proliferation assay; type: functional, cell-based
[3] = Tmax in BALB/c mouse at 20 mg/kg, po measured after 24 hrs by LC-MS/MS analysis; type: ADME, organism-based; conditions: in vivo
[4] = MRT (0 to infinity) in BALB/c mouse at 20 mg/kg, po measured after 24 hrs by LC-MS/MS analysis; type: ADME, organism-based; conditions: in vivo
[5] = target: Stimulator of interferon genes protein (Homo sapiens) (UniProt Q86WV6); assay: Activation of STING-mediated immune response in human HCT-116 cells transfected with ISRE reporter assessed as increase in cGAMP-induced ISRE activation preincubated with compound for 1 hrs followed by cGAMP addition and measured after 48 hrs by luciferase reporter gene assay; type: cell-based; conditions: filed as activator, dose <= 200.0 µM, time 49.0 hrs
Cytochrome P450 2C19 = Cytochrome P450 2C19 (Homo sapiens, UniProt P33261); assay: Inhibition of CYP2C19 in human liver microsomes; type: ADME, Microsome
[6] = Toxicity in BALB/c mouse implanted with mouse CT26 cells assessed as effect on body weight at 200 mg/kg, po preadministered with compound for 2 weeks followed by reinoculation of CT26 cells and measured on day 19; type: organism-based; conditions: in vivo, 456 h, time 19 day
[7] = Toxicity in BALB/c mouse implanted with mouse CT26 cells assessed as effect on body weight at 200 mg/kg, po administered for 2 weeks and measured on day 15; type: organism-based; conditions: in vivo, 360 h, time 15 day
[8] = AUC (0 to infinity) in BALB/c mouse at 20 mg/kg, po measured after 24 hrs by LC-MS/MS analysis; type: ADME, organism-based; set-up: time 24 hrs, dose 20 mg/kg, route po; conditions: in vivo
[9] = target: T1, Ectonucleotide pyrophosphatase/phosphodiesterase family member 1 (Homo sapiens, UniProt P22413); assay: Inhibition of recombinant human ENPP1 using cGAMP as substrate assessed as inhibition of cGAMP hydrolysis preincubated for 5 to 10 mins followed by substrate addition and measured after 90 mins by AMP-Glo reagent based luminescence plate reader analysis
T1 sequence (P22413 whole entry): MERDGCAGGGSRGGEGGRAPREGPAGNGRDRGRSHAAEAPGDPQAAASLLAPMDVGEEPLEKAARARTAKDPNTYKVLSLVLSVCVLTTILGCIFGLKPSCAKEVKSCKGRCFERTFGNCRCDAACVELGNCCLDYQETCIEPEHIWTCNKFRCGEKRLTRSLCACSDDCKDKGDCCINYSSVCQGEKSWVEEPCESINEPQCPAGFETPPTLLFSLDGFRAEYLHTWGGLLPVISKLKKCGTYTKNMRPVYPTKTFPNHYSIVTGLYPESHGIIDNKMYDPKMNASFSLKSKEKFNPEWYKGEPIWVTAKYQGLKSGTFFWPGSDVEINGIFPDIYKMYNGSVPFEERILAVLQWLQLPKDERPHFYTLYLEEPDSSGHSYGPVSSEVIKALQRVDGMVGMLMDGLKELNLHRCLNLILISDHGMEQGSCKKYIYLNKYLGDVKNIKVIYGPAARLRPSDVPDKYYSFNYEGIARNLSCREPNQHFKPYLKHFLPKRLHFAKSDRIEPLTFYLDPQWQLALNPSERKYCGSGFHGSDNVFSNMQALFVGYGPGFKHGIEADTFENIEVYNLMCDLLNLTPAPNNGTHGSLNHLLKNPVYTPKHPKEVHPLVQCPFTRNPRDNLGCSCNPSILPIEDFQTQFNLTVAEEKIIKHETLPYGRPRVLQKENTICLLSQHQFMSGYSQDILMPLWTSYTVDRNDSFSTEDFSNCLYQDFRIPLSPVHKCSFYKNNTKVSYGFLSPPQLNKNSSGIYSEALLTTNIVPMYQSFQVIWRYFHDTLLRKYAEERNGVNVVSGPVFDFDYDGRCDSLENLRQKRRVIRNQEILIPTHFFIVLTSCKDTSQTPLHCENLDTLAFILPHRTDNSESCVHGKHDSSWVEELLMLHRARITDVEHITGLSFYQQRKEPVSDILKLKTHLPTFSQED

[10] = Metabolic stability in mouse liver microsome assessed as intrinsic clearance by LC/MS analysis; type: ADME; conditions: liver microsomes, read-out: CLH
[11] = Metabolic stability in mouse liver microsome assessed as half-life by LC/MS analysis; type: ADME; conditions: liver microsomes
[12] = target: Stimulator of interferon genes protein (Homo sapiens) (UniProt Q86WV6); assay: (§1) Activation of STING-mediated immune response in STING knockout human THP-1 cells transfected with ISRE reporter assessed as increase in cGAMP-induced ISRE activation upto 50 uM preincubated with compound for 1 hrs followed by cGAMP addition and measured after 24 hrs by luciferase reporter gene assay; type: cell-based; conditions: time 25.0 hrs
[13] = target: Stimulator of interferon genes protein (Homo sapiens) (UniProt Q86WV6); assay: as §1, with “in” for “in STING knockout”, “by measuring fold change at 25 to” for “upto”; type: cell-based; conditions: filed as activator, dose 25-50 µM, time 25.0 hrs
[14] = Half-life in BALB/c mouse at 5 mg/kg, iv measured after 24 hrs by LC-MS/MS analysis; type: ADME, organism-based; conditions: in vivo
[15] = Metabolic stability in human liver microsome assessed as parent compound remaining measured after 30 mins by LC/MS analysis; type: ADME; conditions: liver microsomes, read-out: Stability

Chain of Stimulator of interferon genes protein (Homo sapiens) (Q86WV6 whole entry): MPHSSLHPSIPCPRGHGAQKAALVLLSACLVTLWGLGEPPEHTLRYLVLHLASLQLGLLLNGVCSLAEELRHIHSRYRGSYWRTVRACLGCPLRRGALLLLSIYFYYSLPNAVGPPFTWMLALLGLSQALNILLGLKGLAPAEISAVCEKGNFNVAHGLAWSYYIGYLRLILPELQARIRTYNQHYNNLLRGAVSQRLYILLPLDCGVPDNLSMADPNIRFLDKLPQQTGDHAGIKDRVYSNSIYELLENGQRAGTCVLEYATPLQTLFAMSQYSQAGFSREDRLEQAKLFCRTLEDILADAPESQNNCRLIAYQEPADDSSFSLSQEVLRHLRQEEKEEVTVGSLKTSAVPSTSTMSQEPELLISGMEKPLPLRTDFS
Chain of Cytochrome P450 2C19 (P33261 whole entry): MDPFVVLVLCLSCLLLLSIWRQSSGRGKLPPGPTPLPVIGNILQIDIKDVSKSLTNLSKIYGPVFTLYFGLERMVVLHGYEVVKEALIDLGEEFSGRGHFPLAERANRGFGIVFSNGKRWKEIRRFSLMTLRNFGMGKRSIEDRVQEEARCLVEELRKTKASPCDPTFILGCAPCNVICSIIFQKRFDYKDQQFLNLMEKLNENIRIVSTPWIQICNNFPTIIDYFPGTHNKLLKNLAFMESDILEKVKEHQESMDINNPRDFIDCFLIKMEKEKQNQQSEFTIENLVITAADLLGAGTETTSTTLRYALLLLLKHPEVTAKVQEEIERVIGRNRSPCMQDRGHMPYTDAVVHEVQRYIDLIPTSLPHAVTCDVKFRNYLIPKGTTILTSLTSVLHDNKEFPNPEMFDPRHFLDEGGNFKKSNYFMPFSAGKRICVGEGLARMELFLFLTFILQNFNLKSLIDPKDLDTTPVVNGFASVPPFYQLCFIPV

Tmax [1]: 4.8 min
MRT inf [2]: 3.21 h
Tmax [3]: 1.67 h
MRT inf [4]: 3.81 h
Activity [5]: Dose-Dependent Effect
IC50 (Cytochrome P450 2C19): > 10000 nM
AUC(0-inf) [8]: 79600 ng·h/mL
IC50 [9]: 68 nM
CLint scaled [10]: 92.1 mL/min/kg
half-life [11]: 0.987 h
Activity [12]: inactive
fold change (FC) [13]: < 30
half-life [14]: 3.61 h
remaining at 0.5 h [15]: 87%
Compound: Cn1nc(Cc2ccc(NS(N)(=O)=O)cc2)c2ccccc2c1=O
Activity (HCT-116): Not toxic
Activity [6]: Non-Toxic
Activity [7]: Non-Toxic
